Reference: PMC11078216, “Discovery of potent and selective activity-based probes (ABPs) for the deubiquitinating enzyme USP30” (RSC Chemical Biology, 2024)
Values belong to the compound of their own block, whether it stands above or below them.

Tests used:
Assay in all cases: ABPP chemical proteomics (LC-MS/MS) in HEK293T cells
Assay type in all cases: cell-based
ALDH2 = biological target: T1, ALDH2 (Homo sapiens, UniProt P05091)
T1 construct: endogenous in cells; host or cells: HEK293T
T1 sequence (P05091 18-517): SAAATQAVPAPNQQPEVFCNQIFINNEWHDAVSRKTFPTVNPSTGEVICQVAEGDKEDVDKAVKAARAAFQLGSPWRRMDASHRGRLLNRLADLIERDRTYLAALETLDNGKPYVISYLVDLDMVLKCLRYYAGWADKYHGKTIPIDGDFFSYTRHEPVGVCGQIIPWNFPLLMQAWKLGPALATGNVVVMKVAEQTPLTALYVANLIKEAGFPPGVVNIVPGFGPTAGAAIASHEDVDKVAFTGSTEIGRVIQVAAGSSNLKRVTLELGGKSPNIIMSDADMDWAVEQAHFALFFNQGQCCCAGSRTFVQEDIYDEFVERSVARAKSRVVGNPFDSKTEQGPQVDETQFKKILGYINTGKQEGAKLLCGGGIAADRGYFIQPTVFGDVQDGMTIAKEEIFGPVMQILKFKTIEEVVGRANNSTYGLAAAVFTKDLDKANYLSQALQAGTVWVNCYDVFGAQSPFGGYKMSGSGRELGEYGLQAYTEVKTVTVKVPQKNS
Protocol: (§1) To explore the selectivity of IMP-2587 and IMP-2586 across the whole proteome, we performed quantitative activity-based protein profiling (ABPP) in HEK293T cells following treatment with IMP-2587 or IMP-2586 (Fig. 3a). After ABP incubation, cells were lysed, and probe-labelled proteins were ligated to biotinylated capture reagents.[27] […] USP30 was outcompeted by corresponding parent inhibitors for each ABP (Fig. 5b and d and Tables S3 and S5, ESI ^†), confirming the high potency and rapid engagement of IMP-2587 and IMP-2586 in cells. […] DESI1 and DESI2 are small ubiquitin-related modifier (SUMO) proteases,[3,29–32] and IMP-2587 and IMP-2586 may offer a starting point for future development of DESI ABPs. […]
(§2) d) Live cell probe incubation, lysate click chemistry and precipitation 6-well HEK293T cells were incubated with media containing compounds ABP 2 and ABP 4 at indicated concentrations for 1 h at 37 °C. The cells were washed with PBS and lysed with lysis buffer (50 μL (1% (v/v) Triton X-100, 0.1% (w/v) sodium dodecyl sulfate (SDS), EDTA-free complete protease inhibitor cocktail (1×, Roche) in PBS on ice for 10 min. The lysates were scraped and transferred to corresponding Lo-Bind Eppendorfs. Each lysate was sonicated for 1 minute, and the samples centrifuges at 5,000 x g at 4 °C for 5 minutes to pellet insoluble cellular debris. The supernatant was collected, and protein concentration was determined using the DC Protein Assay (Bio-Rad) as per manufacturer’s instructions, and normalised to lowest concentrated sample (e.g. 1 mg/mL, using lysis buffer). The following “click mixture” was prepared separately, preparing 6 μL for every 100 μL of […]
(§3) Capture reagent (AzRB/AzT for ABP 2, YnT/YnB for ABP 4 10 mM in DMSO, 1 vol; final concentration […]
(§4) CuSO4 (50 mM in water, 2 vol; final concentration in reaction 1 mM)
(§5) TCEP (50 mM in water, 2 vol; final concentration in reaction 1 mM)
(§6) TBTA (10 mM in DMSO, 1 vol; final concentration in reaction 100 µM)
(§7) The click mixture was vortexed and incubated at room temperature for 2 min before 6 μL of the mixture was added to every 100 μL of lysate. The reaction mixtures were shaken at room temperature for 1 h before being quenched with EDTA (500 mM in H2O) to a final concentration of 10 mM.
(§8) Proteins were precipitated by adding H2O (1 vol), MeOH (2 vol) and CHCl3 (0.5 vol), vortexing briefly then centrifuging at 17,000 × g for 5 min. The top H2O/MeOH layer was discarded and the middle layer of protein pellet and lower CHCl3 layer retained. The suspension was washed with MeOH (300 μL), and sonicated to break up the pellet. The proteins were pelleted by centrifugation at 10,000–17000 × g for 5–10 min or until a compact pellet was formed. The protein pellet was washed once more with MeOH (1 mL). The pellet was resuspended by sonicating and completely dissolving in 1% (w/v) SDS in PBS (to 5 mg/mL protein) before being made up to 1 mg/mL protein with PBS. […]
(§9) f) Neutravidin biotin enrichment (Affinity pull-down)
(§10) Click chemistry and precipitation steps were carried out as described in section 3.2.d, on at least 400ug of protein per sample. The pellet was resuspended by sonicating and completely dissolving in 1% (w/v) SDS in HEPES 50 mM pH 8.0, before being made up to 1 mg/mL protein with HEPES 50 mM pH 8.0 to […]
(§11) achieve a final concentration of 0.2% SDS. 20uL of each samples was collected as TL (Total lysate) samples. Pull down of biotinylated proteins was achieved by incubating samples with pre-equilibrated (3x 1 mL washes with 0.2% (w/v) SDS in HEPES 50 mM pH 8 buffer) Pierce™ NeutrAvidin™ Agarose beads for 3 hours at room temperature. NeutrAvidin™ Agarose beads were used in ratio of 1 μL bead resin per 10ug of protein sample. The beads were subsequently washed by moderate shaking for 10 seconds then briefly pelleting by table-top centrifuge then vacuum aspirating the supernatant with fine-end pipette tips (to not disturb the agarose) after collecting 20 µL supernatant as SN (supernatant […]
(§12) ) samples. […]

ISOC1 = biological target: T2, ISOC1 (Homo sapiens, UniProt Q96CN7)
T2 construct: endogenous in cells; host or cells: HEK293T
T2 sequence (Q96CN7 1-298): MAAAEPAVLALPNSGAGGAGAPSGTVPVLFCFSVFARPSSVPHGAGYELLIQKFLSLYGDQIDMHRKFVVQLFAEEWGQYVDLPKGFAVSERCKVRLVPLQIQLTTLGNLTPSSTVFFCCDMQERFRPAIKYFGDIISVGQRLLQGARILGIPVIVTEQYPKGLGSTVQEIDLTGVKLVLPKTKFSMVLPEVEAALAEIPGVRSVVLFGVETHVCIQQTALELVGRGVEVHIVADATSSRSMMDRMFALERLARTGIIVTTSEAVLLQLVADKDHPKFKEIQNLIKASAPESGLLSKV
Protocol: as §1, §2, §3, §4, §5, §6, §7, §8, §9, §10, §11, §12

ISOC2 = biological target: T3, ISOC2 (Homo sapiens, UniProt Q96AB3)
T3 construct: endogenous in cells; host or cells: HEK293T
T3 sequence (Q96AB3 1-205): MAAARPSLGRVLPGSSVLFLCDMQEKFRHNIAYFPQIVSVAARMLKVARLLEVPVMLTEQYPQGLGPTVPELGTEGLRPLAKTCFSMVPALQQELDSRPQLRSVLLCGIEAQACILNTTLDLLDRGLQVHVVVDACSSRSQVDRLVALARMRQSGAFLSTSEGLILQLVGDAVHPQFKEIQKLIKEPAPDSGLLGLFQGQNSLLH
Protocol: as §1, §2, §3, §4, §5, §6, §7, §8, §9, §10, §11, §12

[1] = IMP-2587 labelling vs DMSO, 30 nM, 10 min, HEK293T (Table S2, Fig.5a)
[2] = compound 1 out-competition with IMP-2587 labelling, HEK293T (Table S3, Fig.5b)
[3] = IMP-2586 labelling vs DMSO, 30 nM, 10 min, HEK293T (Table S4, Fig.5c)
[4] = compound 3 out-competition with IMP-2586 labelling, HEK293T (Table S5, Fig.5d)

Compound: C#Cc1cccc(-c2cc(NC(=O)CC3CCN(C#N)C3)on2)c1 (stereo not drawn) [IMP-2587]
Difference (log2 fold change of enrichment) (ALDH2; [1]): 3.49 | Difference (log2 fold change of enrichment) (ISOC1; [1]): 4.06 | Difference (log2 fold change of enrichment) (ISOC2; [1]): 3.87

Difference (log2 fold change of enrichment) (ALDH2; [2]): -3.07 | Difference (log2 fold change of enrichment) (ISOC1; [2]): -3.50 | Difference (log2 fold change of enrichment) (ISOC2; [2]): -3.53
Compound: N#CN1CC[C@H](CC(=O)Nc2cc(-c3cccc(Cl)c3)no2)C1 [compound 1, reference compound]

Compound: N#CN1CC[C@@H](NC(=O)c2cc(-c3ccccc3Oc3ccc(N=[N+]=[N-])cc3)n[nH]2)C1 [IMP-2586]
Difference (log2 fold change of enrichment) (ALDH2; [3]): 2.13 | Difference (log2 fold change of enrichment) (ISOC1; [3]): 1.71 | Difference (log2 fold change of enrichment) (ISOC2; [3]): 3.62

Difference (log2 fold change of enrichment) (ALDH2; [4]): -1.64 | Difference (log2 fold change of enrichment) (ISOC1; [4]): -1.80 | Difference (log2 fold change of enrichment) (ISOC2; [4]): -3.08
Compound: N#CN1CC[C@@H](NC(=O)c2cc(-c3ccccc3Oc3ccccc3)n[nH]2)C1 [compound 3, reference compound]
